{"source": "paper PMC9227781", "about": "“Inhibitors of O-Acetylserine Sulfhydrylase with a Cyclopropane-Carboxylic Acid Scaffold Are Effective Colistin Adjuvants in Gram Negative Bacteria” (Pharmaceuticals, 2022)", "key": {"K. pneumoniae ATCC13883": {"system": "K. pneumoniae ATCC13883", "assay": "MIC by broth microdilution, K. pneumoniae", "assay_type": "cell-based, Klebsiella pneumoniae", "settings": "Klebsiella pneumoniae, ATCC13883; compound alone, MHB, 24 h at 37 °C; read-out: MIC (μg/mL) K. pneumoniae ATCC13883", "description": "(§1) MIC values were evaluated following CLSI guidelines with some modifications, as referred to in previous work. Twofold dilutions 25.6–0.05 mg/mL of the tested compounds were performed in DMSO in separate 96-well microtiter U-plates (Greiner, Milan, Italy). In a different 96-well microtiter U-plate, for each well of the replicates, 49 µL of broth medium were added. Then, in each well of the plate, one microliter of each compound at variable dilution in DMSO was added. For each test, three independent experiments with three replicates each were performed. Tested reference bacterial strains (E. coli ATCC25922; S. Typhimurium ATCC14028; K. pneumoniae ATCC13883) were brought to the logarithmic phase of growth in MHB medium by incubation at 37 °C for 24 h. After incubation, bacterial suspensions were centrifuged (2000 rpm, 4 °C for 20 min), and then the pellets were resuspended in 100 mM phosphate buffer, pH 7.0, to reach a final bacterial concentration of 10^8 CFU/mL, adjusted by spectrophotometry (OD620nm ranged between 0.08–0.13). The obtained suspensions were further diluted 1:100 in broth medium to reach a bacterial concentration of 10^6 CFU/mL. Fifty µL of the bacterial suspension containing 10^6 CFU/mL were inoculated into each well within 30 min, to obtain a final concentration of 5 × 10^5 CFU/mL in a total volume of 100 µL. The final dilution range tested was 256–0.5 µg/mL. Growth and sterility controls were performed for each strain and for each tested compound. Plates were then incubated for 24 h at 37 °C in a static aerobic atmosphere. After incubation, plates were read by unaided eye with a microtiter reading mirror and then the OD of each well of the plates was measured spectrophotometrically at 620 nm. MIC values were calculated as the arithmetic mean ± standard deviation (SD) of the unaided eye reading and the inhibition of growth for each tested dilution was calculated from the OD values (mean ± SD). A quality control microorganism (E. coli ATCC 25922) was tested periodically to validate the accuracy of the procedure."}, "MDBK cells": {"system": "MDBK cells", "assay": "Cytotoxicity assay (MTT) on MDBK cells", "assay_type": "cell-based, bovine", "settings": "32, 16, 8 µg/mL; MTT test", "description": "The cytotoxicity assay was performed using the 3-(4,5-dimethylthiazol-2-yl)-2,5-diphenyltetrazolium bromide (MTT) test, following the procedure used by Donofrio et al.. MDBK cells were cultured on microtiter tissue culture plates in DMEM medium for 24 h at 37 °C in the presence of 5% CO2. After incubation, when the cell monolayer was at confluence, an aliquot of 1 µL of UPAR415 in DMSO at different concentrations was added in each well, containing a volume of 100 µL of DMEM medium and MDBK cells, and then the plates were reincubated at the same conditions. After incubation, 10 µL of MTT at 200 mg/mL (3-(4,5-dimethylthiazol-2-yl)-2,5-diphenyltetrazolium bromide) was added to each well and incubated at 37 °C for 6 h. At the end of the incubation, 100 µL of the solubilization solution (10% SDS in 0.01 M HCl) was added to each well and then incubated overnight. The MTT compound, a yellow tetrazolium salt, is reduced by mitochondrial enzymes (succinate dehydrogenase) of metabolically active eukaryotic cells to insoluble formazan crystals. In the presence of metabolically active cells, after the addition of a detergent solution (10% SDS in […]) that allows the formazan to be released from the cells, a violet color is seen in the medium. Instead, in the presence of non-viable cells, MTT is not reduced to formazan and therefore the solution will remain yellow.\nAfter incubation, plates were read with a spectrophotometer at 620 nm. Positive controls (PC)—without any compounds—and PCs with 1% DMSO were performed for each plate and three replicates for two independent experiments were performed for each assay."}, "E. coli ATCC 25922": {"system": "E. coli ATCC 25922", "assay": "MIC by broth microdilution, E. coli", "assay_type": "cell-based, Escherichia coli", "settings": "Escherichia coli, ATCC25922; compound alone, MHB, 24 h at 37 °C; read-out: MIC (μg/mL) E.coli ATCC 25922", "description": "as §1"}, "StOASS-B": {"molecular_target": "T1, StOASS-B (Salmonella typhimurium, UniProt P29848)", "T1 construct": "His-tag (with TEV site) (cleaved yes); made in house; host or cells: E. coli Rosetta (DE3)", "T1 sequence (P29848 1-303)": "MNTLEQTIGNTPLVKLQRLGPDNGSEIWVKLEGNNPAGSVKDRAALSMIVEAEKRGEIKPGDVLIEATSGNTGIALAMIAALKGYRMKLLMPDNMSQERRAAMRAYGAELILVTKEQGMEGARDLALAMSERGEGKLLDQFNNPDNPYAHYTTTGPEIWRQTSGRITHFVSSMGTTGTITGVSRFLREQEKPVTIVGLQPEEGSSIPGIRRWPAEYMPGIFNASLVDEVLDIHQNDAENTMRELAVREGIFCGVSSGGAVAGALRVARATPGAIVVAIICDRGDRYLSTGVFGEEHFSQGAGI", "assay": "Fluorescence binding assay on purified recombinant StOASS-B", "settings": "20 °C, 100 mM HEPES, 5% DMSO, pH 7.0; racemic mixture; esters tested up to 100 μM", "description": "(§2) The affinity of the compounds for StOASS-A and StOASS-B was determined on the purified recombinant proteins by an in vitro fluorescence binding assay. Measurements were carried out at 20 °C in a 3 mm pathlength quartz microcuvette in 100 mM HEPES, 5% DMSO (Applichem, Darmstadt, Germany), pH 7.0, using a Fluoromax-4 (Horiba Jobin-Yvon, Kyoto, Japan) spectrofluorometer. Emission spectra of solutions containing 0.2–1.0 μM StOASS, upon excitation of the pyridoxal 5′-phosphate cofactor at 412 nm, in the presence of increasing concentrations of compounds were collected; fluorescence intensities at 500 nm were plotted to compound concentration and data were fitted to a binding isotherm: I=I0+ΔI·compound/KD+compound where I is the fluorescence emission intensity at 500 nm in the presence of a given concentration of compound, I0 is the initial fluorescence emission in the absence of ligands, ΔI is the amplitude of the fluorescence emission change and KD is the dissociation constant. When the KD was lower than the protein concentration, data were fitted to the quadratic equation: I=I0+ΔI·OASS+compound+KD−OASS+compound+KD^2−4·OASS·compound/2\n(§3) Data were collected in duplicate.\n(§4) Esters were tested up to a concentration of 100 μM and no binding was observed."}, "S. Typhimurium ATCC14028": {"system": "S. Typhimurium ATCC14028", "assay": "MIC by broth microdilution, S. Typhimurium", "assay_type": "cell-based, Salmonella enterica serovar Typhimurium", "settings": "Salmonella enterica; compound alone, MHB, 24 h at 37 °C; read-out: MIC (μg/mL) S. Typhimurium ATCC14028", "description": "as §1"}, "StOASS-A": {"molecular_target": "T2, StOASS-A (Salmonella typhimurium, UniProt P0A1E3)", "T2 construct": "His-tag (with TEV site) (cleaved yes); made in house; host or cells: E. coli Rosetta (DE3)", "T2 sequence (P0A1E3 whole entry)": "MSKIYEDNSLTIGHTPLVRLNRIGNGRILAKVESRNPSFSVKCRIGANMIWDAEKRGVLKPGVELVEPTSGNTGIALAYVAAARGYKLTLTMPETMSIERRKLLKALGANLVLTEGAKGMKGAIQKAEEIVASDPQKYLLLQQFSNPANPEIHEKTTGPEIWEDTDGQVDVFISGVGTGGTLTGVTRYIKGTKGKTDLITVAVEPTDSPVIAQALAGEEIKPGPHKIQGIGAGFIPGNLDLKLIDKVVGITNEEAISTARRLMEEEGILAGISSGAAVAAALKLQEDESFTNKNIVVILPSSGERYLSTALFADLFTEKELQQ", "assay": "Fluorescence binding assay on purified recombinant StOASS-A", "parameters": "species or system S. Typhimurium", "settings": "20 °C, 100 mM HEPES, 5% DMSO, pH 7.0; racemic mixture; esters tested up to 100 μM", "description": "as §2, §3, §4"}}, "data": [{"compound": "CCOC(=O)[C@]1(Cc2ccc(C)cc2)C[C@H]1c1cccc(-c2cc(O)cc(F)c2)c1", "note": "(relative stereo) [Compound 8e, trans-ethyl 2-(3′-fluoro-5′-hydroxy-[1,1′-biphenyl]-3-yl)-1-(4-methylbenzyl) cyclopropanecarboxylate]", "values": [{"measurement": "MIC", "setting": "K. pneumoniae ATCC13883", "result": "> 512", "unit": "µg/mL"}, {"measurement": "Toxicity on viability of MDBK cells", "setting": "MDBK cells", "result": "high toxicity profiles"}, {"measurement": "MIC", "setting": "E. coli ATCC 25922", "result": "> 512", "unit": "µg/mL"}, {"measurement": "KD (μM) OASS-B", "setting": "StOASS-B", "result": "No binding"}, {"measurement": "MIC", "setting": "S. Typhimurium ATCC14028", "result": "> 512", "unit": "µg/mL"}, {"measurement": "KD (μM) OASS-A", "setting": "StOASS-A", "result": "No binding"}]}, {"compound": "CCOC(=O)C1(Cc2ccc(C)cc2)CC1c1cccc(-c2c[nH]nc2C)c1", "note": "(stereo not drawn) [Compound 8b, ethyl 2-(3-(3-methyl-1H-pyrazol-4-yl)phenyl)-1-(4-methylbenzyl)cyclopropanecarboxylate]", "values": [{"measurement": "MIC", "setting": "K. pneumoniae ATCC13883", "result": "> 512", "unit": "µg/mL"}, {"measurement": "Toxicity on viability of MDBK cells", "setting": "MDBK cells", "result": "high toxicity profiles"}, {"measurement": "MIC", "setting": "E. coli ATCC 25922", "result": "> 512", "unit": "µg/mL"}, {"measurement": "KD (μM) OASS-B", "setting": "StOASS-B", "result": "No binding"}, {"measurement": "MIC", "setting": "S. Typhimurium ATCC14028", "result": "> 512", "unit": "µg/mL"}, {"measurement": "KD (μM) OASS-A", "setting": "StOASS-A", "result": "No binding"}]}, {"compound": "CCOC(=O)[C@]1(Cc2ccc(C)cc2)C[C@H]1c1cccc(N2CCN(C)CC2)c1", "note": "(relative stereo) [Compound 20j, trans-ethyl 1-(4-methylbenzyl)-2-(3-(4-methylpiperazin-1-yl)phenyl)cyclopropanecarboxylate]", "values": [{"measurement": "MIC", "setting": "K. pneumoniae ATCC13883", "result": "> 512", "unit": "µg/mL"}, {"measurement": "Toxicity on viability of MDBK cells", "setting": "MDBK cells", "result": "high toxicity profiles"}, {"measurement": "MIC", "setting": "E. coli ATCC 25922", "result": "> 512", "unit": "µg/mL"}, {"measurement": "KD (μM) OASS-B", "setting": "StOASS-B", "result": "No binding"}, {"measurement": "MIC", "setting": "S. Typhimurium ATCC14028", "result": "> 512", "unit": "µg/mL"}, {"measurement": "KD (μM) OASS-A", "setting": "StOASS-A", "result": "No binding"}]}, {"compound": "CCOC(=O)[C@]1(Cc2ccc(C)cc2)C[C@H]1c1cccc(-c2cccc(F)c2)c1", "note": "(relative stereo) [Compound 8f, trans-ethyl 2-(3′-fluoro-[1,1′-biphenyl]-3-yl)-1-(4-methylbenzyl)cyclopropanecarboxylate]", "values": [{"measurement": "MIC", "setting": "K. pneumoniae ATCC13883", "result": "> 512", "unit": "µg/mL"}, {"measurement": "Toxicity on viability of MDBK cells", "setting": "MDBK cells", "result": "proliferative effects"}, {"measurement": "MIC", "setting": "E. coli ATCC 25922", "result": "> 512", "unit": "µg/mL"}, {"measurement": "KD (μM) OASS-B", "setting": "StOASS-B", "result": "No binding"}, {"measurement": "MIC", "setting": "S. Typhimurium ATCC14028", "result": "> 512", "unit": "µg/mL"}, {"measurement": "KD (μM) OASS-A", "setting": "StOASS-A", "result": "No binding"}]}]}
